Results on ten molecules are retold here after ChEMBL document CHEMBL1127581, “Evolution of a novel series of [(N,N-dimethylamino)propyl]- and piperazinylbenzanilides as the first selective 5-HT1D antagonists” (J Med Chem, 1994).

Experiment [1] deals with 5-hydroxytryptamine receptor 1D (Cavia porcellus, UniProt Q60484). As to the kind of experiment: In vitro binding affinity towards 5-hydroxytryptamine 1D receptor in guinea-pig striatum in presence of BMY-7378 and mesulergine. Type of experiment: tissue-based.
5-hydroxytryptamine receptor 1D, sequence (Q60484 whole entry): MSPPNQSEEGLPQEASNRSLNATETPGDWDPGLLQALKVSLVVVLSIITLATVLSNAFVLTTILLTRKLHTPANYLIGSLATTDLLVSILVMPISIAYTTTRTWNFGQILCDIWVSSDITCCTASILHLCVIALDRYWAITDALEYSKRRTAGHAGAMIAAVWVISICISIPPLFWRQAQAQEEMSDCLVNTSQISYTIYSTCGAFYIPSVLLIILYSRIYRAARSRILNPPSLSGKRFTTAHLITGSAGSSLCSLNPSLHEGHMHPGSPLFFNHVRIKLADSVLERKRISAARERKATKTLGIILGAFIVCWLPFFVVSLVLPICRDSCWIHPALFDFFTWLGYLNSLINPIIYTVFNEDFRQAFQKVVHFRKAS
The species named for experiment [2] is Oryctolagus cuniculus. As to the kind of experiment: Tested for its ability to block 5-HT2A induced contractile responses in rabbit isolated aorta. Format: functional.
Experiment [3] concerns the target T1, 5-hydroxytryptamine receptor 1A (Rattus norvegicus, UniProt P19327).
T1 sequence (P19327 whole entry): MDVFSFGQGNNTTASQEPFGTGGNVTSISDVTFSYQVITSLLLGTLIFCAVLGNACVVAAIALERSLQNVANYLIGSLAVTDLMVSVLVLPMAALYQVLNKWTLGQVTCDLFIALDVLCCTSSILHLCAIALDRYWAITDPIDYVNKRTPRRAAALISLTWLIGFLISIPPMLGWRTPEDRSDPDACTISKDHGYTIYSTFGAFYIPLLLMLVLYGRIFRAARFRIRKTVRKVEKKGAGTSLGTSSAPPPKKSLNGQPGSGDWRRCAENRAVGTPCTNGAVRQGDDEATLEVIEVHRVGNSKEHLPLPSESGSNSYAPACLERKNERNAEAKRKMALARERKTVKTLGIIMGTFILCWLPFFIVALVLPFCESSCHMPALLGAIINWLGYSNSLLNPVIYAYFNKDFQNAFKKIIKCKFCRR
As to the kind of experiment: Binding affinity towards 5-hydroxytryptamine 1A receptor in rat hippocampus using [3H]8-OH-DPAT. Format: tissue-based.

For the next experiment, the species on record is Canis familiaris. The experiment can be described thus: Tested in vitro for its ability to block 5-HT induced contractile responses in dog isolated saphenous vein. Format: functional, Canis lupus familiaris.
The target in experiment [4] is 5-hydroxytryptamine receptor 1D (Cavia porcellus) (UniProt Q60484). As to the kind of experiment: Compound at 50 mg/kg was tested for the inhibition of hypothermia in the guinea pig caused by stimulation of central 5-hydroxytryptamine 1D receptors by the agonist GR-46611. Type of experiment: functional, organism-based. Further details: dose 50 mg/kg.
5-hydroxytryptamine receptor 1D (Cavia porcellus), sequence (Q60484 whole entry): as the sequence (Q60484 whole entry) above
The target is the same in experiment [5]. The experiment can be described thus: Oral effective dose against hypothermia in the guinea pig caused by stimulation of central 5-hydroxytryptamine 1D receptors by the agonist GR-46611. Type of experiment: functional.
For experiment [6] the target is unchanged. As to the kind of experiment: Compound at 45 mg/kg was tested for the inhibition of hypothermia in the guinea pig caused by stimulation of central 5-hydroxytryptamine 1D receptors by the agonist GR-46611. Format: functional, organism-based. Further details: dose 45 mg/kg.
The species entered for experiment [7] is Oryctolagus cuniculus. As to the kind of experiment: Tested in vitro for its ability to block 5-HT2A induced contraction of rabbit isolated aorta. Format: functional.
The target of experiment [8] is 5-hydroxytryptamine receptor 1B (Rattus norvegicus, UniProt P28564). As to the kind of experiment: In vitro binding affinity towards 5-hydroxytryptamine 1B receptor in rat striatal membrane with [125I]- iodocyanopindolol. Format: cell membranes, Striatum.
5-hydroxytryptamine receptor 1B, sequence (P28564 whole entry): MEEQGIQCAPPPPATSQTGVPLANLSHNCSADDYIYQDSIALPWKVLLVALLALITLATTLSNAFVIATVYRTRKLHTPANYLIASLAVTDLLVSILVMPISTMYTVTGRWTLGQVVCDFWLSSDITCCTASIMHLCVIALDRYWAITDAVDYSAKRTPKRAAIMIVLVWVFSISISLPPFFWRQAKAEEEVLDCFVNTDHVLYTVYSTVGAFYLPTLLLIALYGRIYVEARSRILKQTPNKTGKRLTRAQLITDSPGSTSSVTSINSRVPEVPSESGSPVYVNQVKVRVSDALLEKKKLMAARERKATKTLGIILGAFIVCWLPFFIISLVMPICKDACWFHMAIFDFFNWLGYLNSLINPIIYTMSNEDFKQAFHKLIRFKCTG
Experiment [9] addresses 5-hydroxytryptamine receptor 1D (Cavia porcellus) (UniProt Q60484). As to the kind of experiment: Oral effective dose against hypothermia in the guinea pig caused by stimulation of central 5-hydroxytryptamine 1D receptors by the agonist GR-46611;range is 0.2-1.2. Format: functional.
Experiment [10] concerns the target T1, 5-hydroxytryptamine receptor 1A. As to the kind of experiment: Binding affinity towards 5-hydroxytryptamine 1A receptor in rat hippocampus with [3H]8-OH-DPAT. Type of experiment: tissue-based.
Experiment [11] deals with 5-hydroxytryptamine receptor 1D (Cavia porcellus) (UniProt Q60484). The experiment can be described thus: Oral effective dose against hypothermia in the guinea pig caused by stimulation of central 5-hydroxytryptamine 1D receptors by the agonist GR-46611; range is 2-9. Format: functional.
The target is the same in experiment [12]. The experiment can be described thus: Compound at oral dose of 45 mg/kg was tested for percent inhibition against 5-hydroxytryptamine 1D receptor causes hypothermia in guinea pig. Further details: dose 45 mg/kg. Type of experiment: functional, organism-based.
The target is the same in experiment [13]. The experiment can be described thus: Oral effective dose against hypothermia in the guinea pig caused by stimulation of central 5-hydroxytryptamine 1D receptor by the agonist GR-46611. Type of experiment: functional.
The target is the same in experiment [14]. As to the kind of experiment: Compound at 3 mg/kg was tested for the inhibition of hypothermia in the guinea pig caused by stimulation of central 5-hydroxytryptamine 1D receptors by the agonist GR-46611. Type of experiment: functional, organism-based. Further details: dose 3 mg/kg.

Take `COc1ccc(C(=O)Nc2ccc(-c3ccc(C(=O)O)cc3C)cc2)cc1CCCN(C)C`: the figures for the Ki in experiment [1] and in experiment [3] were 31.6 nM and more than 10000 nM, respectively. For the same molecule, the pKB (usually −log10 of the KB, conventionally taken in molar units) in the experiment filed under Oryctolagus cuniculus [2] stood at 5.7; in the experiment filed under Canis familiaris it was 8.7.

For `COc1ccc(C(=O)Nc2ccc(-c3ccncc3)cc2)cc1CCCN(C)C`, the inhibition (usually the change of the read-out against control, counted positive when it falls) in experiment [4] was less than 30%. The Ki (as a rule, a measure of affinity in units of concentration, obtained from inhibition or displacement) was 10 nM in experiment [1] and 20000 nM in experiment [3]. In addition, the pKB in the experiment listed under Oryctolagus cuniculus [2] was determined as 6.3; in the experiment listed under Canis familiaris, 7.8.

Regarding `COc1ccc(C(=O)Nc2ccc(-c3ccc(CO)cc3C)cc2)cc1CCCN(C)C`, the values for the pKB in the experiment listed under Oryctolagus cuniculus [2] and in the experiment filed under Canis familiaris were 5.9 and 8.5, respectively. For the same molecule, the ED50 (commonly the dose at which the effect has come halfway, by size or by number of responders) in experiment [5] was 45 mg/kg. This molecule also returned an inhibition in experiment [6] of 52%.

Regarding `COc1ccc(C(=O)Nc2ccc(-c3ccc(-c4noc(C)n4)cc3C)cc2)cc1N1CCN(C)CC1`, the figures for the Ki in experiment [1], in experiment [3] and in experiment [8] were 6.31 nM, 1260 nM and 6.31 nM, respectively. In addition, the pKB in the experiment filed under Oryctolagus cuniculus [7] was 7.8; in the experiment filed under Canis familiaris, 8.2. This molecule also registered an ED50 in experiment [9] of 0.5 mg/kg.

With `COc1ccc(C(=O)Nc2ccc(-c3ccncc3)cc2)cc1N1CCN(C)CC1`, the Ki in experiment [1] is 3.16 nM. The pKB in the experiment listed under Oryctolagus cuniculus [7] amounted to 6.5; in the experiment listed under Canis familiaris, 7.9. In experiment [5], this molecule returned an ED50 of more than 45 mg/kg.

Take `COc1ccc(NC(=O)c2ccc(-c3ccncc3)cc2)cc1N1CCN(C)CC1`: the Ki in experiment [1] was 5.01 nM; in experiment [10] it was 1260 nM. Also, the pKB in the experiment filed under Oryctolagus cuniculus [7] is given as 6.5; in the experiment listed under Canis familiaris, 8. The molecule also gave an ED50 in experiment [11] of 5 mg/kg.

Regarding `COc1ccc(C(=O)Nc2ccc(-c3ccc(C=O)cc3C)cc2)cc1CCCN(C)C`, the Ki in [1] was 6.31 nM; in experiment [3], 5010 nM. Further, the pKB in the experiment listed under Oryctolagus cuniculus [2] stood at 6.3; in the experiment filed under Canis familiaris, 8.4. The same molecule registered an ED50 in [5] of 45 mg/kg. In addition, the inhibition in [12] is less than 30%.

With `COc1ccc(NC(=O)c2ccc(-c3ccc(C(=O)N(C)C)cc3C)cc2)cc1N1CCN(C)CC1`, the Ki is 5.01 nM in experiment [1], 251 nM in [3] and 6.31 nM in experiment [8]. The figures for the pKB in the experiment filed under Oryctolagus cuniculus [7] and in the experiment listed under Canis familiaris were 4.9 and 9.2, respectively. This molecule also registered an ED50 in experiment [13] of 0.67 mg/kg.

`CCOc1ccc(NC(=O)c2ccc(OC)c(CCCN(C)C)c2)cc1`: the figures for the pKB in the experiment filed under Oryctolagus cuniculus [2] and in the experiment filed under Canis familiaris were 6.2 and 6.9, respectively.

As for `COCCOC(=O)c1ccc(-c2ccc(NC(=O)c3ccc(OC)c(CCCN(C)C)c3)cc2)c(C)c1`, the Ki in experiment [1] is 3.16 nM. Moreover, the pKB is recorded as 6.2 in the experiment listed under Oryctolagus cuniculus [2] and 8.4 in the experiment listed under Canis familiaris. The molecule further displayed an ED50 in experiment [5] of 45 mg/kg. The inhibition stood at 55% in [6] and 66% in [14].
